{"source": "paper PMC9865188", "about": "(Pharmaceutics, 2023)", "key": {"[1]": {"test": "Pharmacokinetic study in Sprague Dawley rats (oral gavage)", "type": "in vivo", "settings": "for concentration at 15 min / Cmax / AUC(0-t) / bioavailability / half-life: male, rat, plasma; for concentration at 15 min / Cmax: Sprague Dawley; for concentration at 15 min: oral, Etoposide C15min; for Cmax / AUC(0-t) / bioavailability / half-life: po; for Cmax: Etoposide Cmax; for AUC(0-t) / bioavailability / half-life: Sprague-Dawley; for AUC(0-t): Etoposide AUC0–6h; for bioavailability: Etoposide bioavailability; for half-life: Etoposide t½", "method": "The study was conducted according to the European Convention for the Protection of Vertebrate Animals used for Experimental and other Scientific Purposes (ETS no. 123) and Belgian law controlling the experiments on animals (Royal Decree of 29 May 2013 for the protection of laboratory animals). Animals were allowed minimum five days to acclimatise upon arrival from the supplier, and they were housed in polysulphone cages (58 × 52 × 20 cm) in groups of six provided with wooden sticks for enrichment. Animals had free access to Safe 04 Maintenance Diet (Safe, Rosenberg, Germany) and water during acclimatisation and during the study.\nMale Sprague Dawley rats (Charles River, Dortmund, Germany) weighing 293–358 g were randomly assigned into six groups of six animals. Formulations were prepared as clear solutions in 40% v/v ethanol–water and 10 mL/kg was administered to each animal by oral gavage. […] Plasma samples were taken by tail vein puncture with a needle followed by collection in 32–64 µL micro haematocrit tubes (Vitrex Medical, Herlev, Denmark) at times 15, 30, and 45 min and 1, 2, 3, 4, and 6 h. Samples were centrifuged, and plasma was transferred into 10 µL end-to-end pipettes (Vitrex Medical, Herlev, Denmark) and immediately frozen at −80 °C until bioanalysis. Immediately after the study, animals were euthanised according to the principles of euthanasia stated in the AVMA Guidelines for the Euthanasia of Animals (American Veterinary Medical Association, 2020). Plasma samples were analysed by a previously described qualified LC-MS/MS method.\nPharmacokinetic parameters were calculated individually for each animal subject and pooled for statistical analysis. The plasma concentration at 15 min (C15min) was reported as an average of the plasma concentration of the six animals in each group. […] Elimination rate constants (ke) were calculated by linear regression of the linear part of the ln(plasma concentration) versus time profiles, and plasma half-life (t½) was calculated from ke:(3) t½=ln (2)/ke"}, "P-gp": {"molecular_target": "P-gp (Homo sapiens, UniProt P08183)", "sequence (P08183 whole entry)": "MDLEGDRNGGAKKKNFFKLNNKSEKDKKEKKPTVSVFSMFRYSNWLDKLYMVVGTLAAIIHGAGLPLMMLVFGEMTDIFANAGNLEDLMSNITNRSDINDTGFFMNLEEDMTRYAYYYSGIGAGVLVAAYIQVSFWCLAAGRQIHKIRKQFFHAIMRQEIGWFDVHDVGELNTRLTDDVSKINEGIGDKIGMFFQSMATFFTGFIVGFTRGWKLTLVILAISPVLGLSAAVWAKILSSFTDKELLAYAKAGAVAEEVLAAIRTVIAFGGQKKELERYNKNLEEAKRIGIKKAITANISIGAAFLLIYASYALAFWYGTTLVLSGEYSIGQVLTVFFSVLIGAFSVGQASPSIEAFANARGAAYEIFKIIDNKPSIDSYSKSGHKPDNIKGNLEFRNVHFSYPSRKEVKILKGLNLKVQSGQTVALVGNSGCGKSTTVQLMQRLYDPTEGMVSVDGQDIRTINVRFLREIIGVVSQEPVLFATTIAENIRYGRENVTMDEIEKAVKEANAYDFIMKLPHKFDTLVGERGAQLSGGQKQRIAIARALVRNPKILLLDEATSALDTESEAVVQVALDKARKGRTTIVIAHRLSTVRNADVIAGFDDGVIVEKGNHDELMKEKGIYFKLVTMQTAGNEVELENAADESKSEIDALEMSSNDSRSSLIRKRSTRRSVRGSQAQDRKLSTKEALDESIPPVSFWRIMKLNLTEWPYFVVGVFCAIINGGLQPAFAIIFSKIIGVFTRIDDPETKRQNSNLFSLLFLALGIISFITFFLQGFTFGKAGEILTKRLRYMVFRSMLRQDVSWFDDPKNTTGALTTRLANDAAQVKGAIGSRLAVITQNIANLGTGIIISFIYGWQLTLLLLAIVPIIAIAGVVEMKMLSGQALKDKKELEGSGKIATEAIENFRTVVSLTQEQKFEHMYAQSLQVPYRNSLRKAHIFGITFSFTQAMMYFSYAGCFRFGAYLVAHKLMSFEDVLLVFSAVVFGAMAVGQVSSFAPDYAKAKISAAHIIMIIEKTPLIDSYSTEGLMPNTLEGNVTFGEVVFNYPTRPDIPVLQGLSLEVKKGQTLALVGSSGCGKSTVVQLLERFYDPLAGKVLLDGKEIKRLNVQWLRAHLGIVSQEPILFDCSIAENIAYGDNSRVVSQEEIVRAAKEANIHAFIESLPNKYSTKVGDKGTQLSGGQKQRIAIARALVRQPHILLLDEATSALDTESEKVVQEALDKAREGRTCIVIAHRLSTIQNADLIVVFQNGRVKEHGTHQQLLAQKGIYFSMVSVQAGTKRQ", "test": "Transcellular etoposide permeability across Caco-2 cell monolayers", "settings": "Caco-2, spike method, 2.5 nM zosuquidar vs 2.5 nM zosuquidar + 0.2 µM polysorbate 20", "protocol": "All were carried out in four independent cell passages. Transcellular permeability studies were performed in HEPES HBSS pH 7.4 and were assessed in the basolateral (B) to apical (A) and A–B direction for series (1) and (3) and in the B–A direction for series (2). […] Test solutions were either prepared by conventional serial dilution for series (1)–(2) or by a spike method for series (3).\nBefore the transport experiment, growth medium was removed from the cells by vacuum suction (Vacusip, Integra Biosciences, NH, USA), followed by a 10 min equilibration in HEPES HBSS pH 7.4 on a Talboys 1000 MP incubating microplate shaker (Troemner, NJ, USA, 220 rpm, 37 °C). Then, the buffer was removed, and donor and acceptor solutions were added, with a total of 500 and 1000 µL to the A and B compartment, respectively. […] At 120 min, a sample was taken from the donor compartment and diluted in mobile phase. Samples were analysed by HPLC-FL, and for series (2) and (3), 50 µL sample was transferred to a black, clear-bottom 96-well plate for lucifer yellow quantification.\nPapp was calculated by dividing the flux with the measured donor concentration."}, "[2]": {"settings": "cited from earlier work"}, "[3]": {"settings": "group B: etoposide 20 mg/kg + zosuquidar 0.63 mg/kg + 1.0% v/v polysorbate 20 oral"}, "[4]": {"settings": "group D: etoposide 20 mg/kg + zosuquidar 2.0 mg/kg + 5.0% v/v polysorbate 20 oral"}, "[5]": {"settings": "group E: etoposide 20 mg/kg + zosuquidar 6.3 mg/kg + 5.0% v/v polysorbate 20 oral"}, "[6]": {"settings": "group F: etoposide 20 mg/kg + zosuquidar 6.3 mg/kg + 10% v/v polysorbate 20 oral"}, "[7]": {"settings": "20 mg/kg, group A: etoposide 20 mg/kg + 1.0% v/v polysorbate 20 oral"}, "[8]": {"settings": "20 mg/kg, group C: etoposide 20 mg/kg + 5.0% v/v polysorbate 20 oral"}, "[9]": {"settings": "20 mg/kg, group B: etoposide 20 mg/kg + zosuquidar 0.63 mg/kg + 1.0% v/v polysorbate 20 oral"}, "[10]": {"settings": "20 mg/kg, group D: etoposide 20 mg/kg + zosuquidar 2.0 mg/kg + 5.0% v/v polysorbate 20 oral"}, "[11]": {"settings": "20 mg/kg, group E: etoposide 20 mg/kg + zosuquidar 6.3 mg/kg + 5.0% v/v polysorbate 20 oral"}, "[12]": {"settings": "20 mg/kg, group F: etoposide 20 mg/kg + zosuquidar 6.3 mg/kg + 10% v/v polysorbate 20 oral"}, "[13]": {"settings": "group D*: etoposide 20 mg/kg oral alone"}, "[14]": {"settings": "group F*: etoposide 20 mg/kg + zosuquidar 0.63 mg/kg oral"}, "[15]": {"settings": "group G*: etoposide 20 mg/kg + zosuquidar 2.0 mg/kg oral"}, "[16]": {"settings": "group H*: etoposide 20 mg/kg + zosuquidar 6.3 mg/kg oral"}}, "note": "Where two headings read alike, the source gives them in different places.", "data": [{"smiles": "COc1cc([C@@H]2c3cc4c(cc3[C@@H](O[C@@H]3O[C@@H]5CO[C@@H](C)O[C@H]5[C@H](O)[C@H]3O)[C@H]3COC(=O)[C@H]23)OCO4)cc(OC)c1O", "note": "[etoposide]", "values": [{"measurement": "Etoposide tmax, median [Q1; Q3]", "setting": "[1]; group A: etoposide 20 mg/kg + 1.0% v/v polysorbate 20 oral", "value": "30 [30;34] min"}, {"measurement": "Etoposide tmax, median [Q1; Q3]", "setting": "[1]; [3]", "value": "45 [30;49] min"}, {"measurement": "Etoposide tmax, median [Q1; Q3]", "setting": "[1]; group C: etoposide 20 mg/kg + 5.0% v/v polysorbate 20 oral", "value": "30 [26;30] min"}, {"measurement": "Etoposide tmax, median [Q1; Q3]", "setting": "[1]; [4]", "value": "38 [30;60] min"}, {"measurement": "Etoposide tmax, median [Q1; Q3]", "setting": "[1]; [5]", "value": "45 [41;49] min"}, {"measurement": "Etoposide tmax, median [Q1; Q3]", "setting": "[1]; [6]", "value": "45 [41;60] min"}, {"measurement": "Etoposide t½", "setting": "[1]; [6]", "value": "56.4 ± 2.2", "unit": "min"}, {"measurement": "concentration at 15 min", "setting": "[1]; [7]", "value": "404 ± 58", "unit": "ng/mL"}, {"measurement": "concentration at 15 min", "setting": "[1]; [8]", "value": "1130 ± 140", "unit": "ng/mL"}, {"measurement": "concentration at 15 min", "setting": "[1]; [3]", "value": "1140 ± 120", "unit": "ng/mL"}, {"measurement": "concentration at 15 min", "setting": "[1]; [4]", "value": "1010 ± 100", "unit": "ng/mL"}, {"measurement": "concentration at 15 min", "setting": "[1]; [5]", "value": "923 ± 103", "unit": "ng/mL"}, {"measurement": "concentration at 15 min", "setting": "[1]; [6]", "value": "579 ± 52", "unit": "ng/mL"}, {"measurement": "Cmax", "setting": "[1]; [7]", "value": "711 ± 86", "unit": "ng/mL"}, {"measurement": "Cmax", "setting": "[1]; [9]", "value": "1750 ± 160", "unit": "ng/mL"}, {"measurement": "Cmax", "setting": "[1]; [8]", "value": "1220 ± 140", "unit": "ng/mL"}, {"measurement": "Cmax", "setting": "[1]; [10]", "value": "1430 ± 180", "unit": "ng/mL"}, {"measurement": "Cmax", "setting": "[1]; [11]", "value": "1300 ± 130", "unit": "ng/mL"}, {"measurement": "Cmax", "setting": "[1]; [12]", "value": "1020 ± 70", "unit": "ng/mL"}, {"measurement": "AUC(0-t)", "setting": "[1]; [7]", "value": "921 ± 84", "unit": "ng·h/mL"}, {"measurement": "AUC(0-t)", "setting": "[1]; [9]", "value": "2610 ± 240", "unit": "ng·h/mL"}, {"measurement": "AUC(0-t)", "setting": "[1]; [8]", "value": "1970 ± 240", "unit": "ng·h/mL"}, {"measurement": "AUC(0-t)", "setting": "[1]; [10]", "value": "3080 ± 380", "unit": "ng·h/mL"}, {"measurement": "AUC(0-t)", "setting": "[1]; [11]", "value": "2800 ± 200", "unit": "ng·h/mL"}, {"measurement": "AUC(0-t)", "setting": "[1]; [12]", "value": "2310 ± 160", "unit": "ng·h/mL"}, {"measurement": "bioavailability", "setting": "[1]; [7]", "value": "5.35 ± 0.49", "unit": "%"}, {"measurement": "bioavailability", "setting": "[1]; [9]", "value": "15.2 ± 1.4", "unit": "%"}, {"measurement": "bioavailability", "setting": "[1]; [8]", "value": "11.5 ± 1.4", "unit": "%"}, {"measurement": "bioavailability", "setting": "[1]; [10]", "value": "17.9 ± 2.2", "unit": "%"}, {"measurement": "bioavailability", "setting": "[1]; [11]", "value": "16.3 ± 1.2", "unit": "%"}, {"measurement": "bioavailability", "setting": "[1]; [12]", "value": "13.4 ± 1", "unit": "%"}, {"measurement": "half-life", "setting": "[1]; [7]", "value": "42.4 ± 2.4", "unit": "min"}, {"measurement": "half-life", "setting": "[1]; [9]", "value": "37.2 ± 1.2", "unit": "min"}, {"measurement": "half-life", "setting": "[1]; [8]", "value": "43.3 ± 2", "unit": "min"}, {"measurement": "half-life", "setting": "[1]; [10]", "value": "52.9 ± 2.8", "unit": "min"}, {"measurement": "half-life", "setting": "[1]; [11]", "value": "54.7 ± 4.5", "unit": "min"}, {"measurement": "difference in mean etoposide Papp", "setting": "P-gp", "value": "no difference"}, {"measurement": "Etoposide AUC0–6h", "setting": "[2]; [13]", "value": "947 ± 156", "unit": "ng·h/mL"}, {"measurement": "Etoposide Cmax", "setting": "[2]; [13]", "value": "390 ± 84", "unit": "ng/mL"}, {"measurement": "Etoposide bioavailability", "setting": "[2]; [13]", "value": "5.51 ± 0.91", "unit": "%"}, {"measurement": "Etoposide tmax, median [Q1; Q3]", "setting": "[2]; [13]", "value": "15 [15;30] min"}, {"measurement": "Etoposide t½", "setting": "[2]; [13]", "value": "80.8 ± 13.2", "unit": "min"}, {"measurement": "Etoposide AUC0–6h", "setting": "[2]; [14]", "value": "2470 ± 440", "unit": "ng·h/mL"}, {"measurement": "Etoposide Cmax", "setting": "[2]; [14]", "value": "1590 ± 290", "unit": "ng/mL"}, {"measurement": "Etoposide bioavailability", "setting": "[2]; [14]", "value": "14.4 ± 2.5", "unit": "%"}, {"measurement": "Etoposide tmax, median [Q1; Q3]", "setting": "[2]; [14]", "value": "45 [15;45] min"}, {"measurement": "Etoposide t½", "setting": "[2]; [14]", "value": "39.3 ± 3.0", "unit": "min"}, {"measurement": "Etoposide AUC0–6h", "setting": "[2]; [15]", "value": "3860 ± 500", "unit": "ng·h/mL"}, {"measurement": "Etoposide Cmax", "setting": "[2]; [15]", "value": "2240 ± 540", "unit": "ng/mL"}, {"measurement": "Etoposide bioavailability", "setting": "[2]; [15]", "value": "22.4 ± 2.9", "unit": "%"}, {"measurement": "Etoposide tmax, median [Q1; Q3]", "setting": "[2]; [15]", "value": "38 [26;60] min"}, {"measurement": "Etoposide t½", "setting": "[2]; [15]", "value": "51.4 ± 2.4", "unit": "min"}, {"measurement": "Etoposide AUC0–6h", "setting": "[2]; [16]", "value": "4270 ± 470", "unit": "ng·h/mL"}, {"measurement": "Etoposide Cmax", "setting": "[2]; [16]", "value": "2110 ± 200", "unit": "ng/mL"}, {"measurement": "Etoposide bioavailability", "setting": "[2]; [16]", "value": "24.8 ± 2.7", "unit": "%"}, {"measurement": "Etoposide tmax, median [Q1; Q3]", "setting": "[2]; [16]", "value": "45 [15;60] min"}, {"measurement": "Etoposide t½", "setting": "[2]; [16]", "value": "56.5 ± 4.8", "unit": "min"}]}]}
